Literature values as cited in patent US7202251B2, “Bicyclic anilide spirohydantoin CGRP receptor antagonists” (Merck & Co., Inc., priority 2003, dated 2007).
Ends that are not written are not given here.

How the values were obtained:
facial blood flow [1] = conditions: marmoset, electrical stimulation of the trigeminal ganglion
[2] = system: middle meningeal artery diameter; conditions: rats, electrical stimulation of the dura mater, prior administration
facial blood flow [3] = conditions: rat, trigeminal ganglion stimulation

For `NCCCC[C@H](NC(=O)[C@@H](Cc1cc(Br)c(O)c(Br)c1)NC(=O)N1CCC(N2Cc3ccccc3NC2=O)CC1)C(=O)N1CCN(c2ccncc2)CC1` [BIBN4096BS], the “effect on increase in facial blood flow” value (facial blood flow [1]) is listed as “blocked”.
For “CGRP(8-37): a peptide CGRP antagonist (VTHRLAGLLSRSGGVVKNNFVPTNVGSKAF; ends and bridges not checked; UniProt P06881 90-119, looked up, fragment)”, the “effect on increase of middle meningeal artery diameter” value [2] is listed as “blocked” and the “effect on increased facial blood flow” value (facial blood flow [3]) is listed as “inhibited”.
